Where two headings read alike, the source gives them in different places.
How the values were obtained:
[1] = system: NCI-H292 lung cancer cells; assay: FDA drug screening, complete media vs cholesterol-free media with simvastatin (TABLE 2); format: cell-based, human
[2] = system: NCI-H292 lung cancer cells; assay: FDA drug screening, complete media vs cholesterol-free media without statin (TABLE 1); format: cell-based, human
[3] = NCI-H292 cells, FDA drug library screen, cholesterol-free media with simvastatin 0.04 μM
[4] = NCI-H292 cells, FDA drug library screen, complete media
[5] = complete media minus cholesterol-free media + simvastatin, >0 enhanced anti-cancer activity, about 0 neutral, <0 antagonist
[6] = Complete minus Cholesterol-free, greater than 0 enhanced anti-cancer activity, about 0 neutral, below 0 antagonists
[7] = NCI-H292 cells in cholesterol-free media without statin
[8] = NCI-H292 cells in complete media
[9] = complete media vs cholesterol-free media + simvastatin (0.04 μM), >0 enhanced anti-cancer activity, about 0 neutral, <0 antagonist
[10] = NCI-H292 cells, cholesterol-free media without statin, FDA drug library screen
[11] = NCI-H292 cells, complete media, FDA drug library screen
[12] = complete vs cholesterol-free media, >0 enhanced anti-cancer activity, about 0 neutral, <0 antagonist
[13] = NCI-H292 cells, cholesterol-free media with simvastatin 0.04 μM, FDA drug library screen (TABLE 2)
[14] = NCI-H292 cells, complete media, FDA drug library screen (TABLE 2)
[15] = complete media minus cholesterol-free media + simvastatin (0.04 μM), >0 enhanced anti-cancer activity, about 0 neutral, <0 antagonist
[16] = NCI-H292 cells, cholesterol-free media without statin
[17] = complete vs cholesterol-free media, greater than 0 enhanced anti-cancer activity, about 0 neutral, below 0 antagonists
[18] = Complete minus Cholesterol-free, […]
[19] = NCI-H292 cells, FDA drug library screen, cholesterol-free media without statin
[20] = NCI-H292 cells, drug in cholesterol-free media with simvastatin 0.04 μM
[21] = NCI-H292 cells, drug in complete media
[22] = NCI-H292 cells, FDA library drug in cholesterol-free media with simvastatin 0.04 μM
[23] = NCI-H292 cells, FDA library drug in complete media
[24] = complete media vs cholesterol-free media + simvastatin (0.04 μM), […]
[25] = Complete minus Cholesterol-free, greater than 0 enhanced anti-cancer activity, about 0 neutral, below 0 antagonist

## O=C[C@H](O)[C@@H](O)[C@H](O)CO (racemic) [DL-Xylose]
[1]; [3]
  Cholesterol-free media + simvastatin (0.04 μM): 0.8322
[1]; [4]
  Complete Media: 1.203
[1]; [5]
  Difference: 0.37
[2]; [6]
  Difference: −0.70
[2]; [7]
  Cholesterol-free: 1.5
[2]; [8]
  Complete: 0.7993

## Cc1c(C)c2c(c(C)c1O)CCC(C)(CCCC(C)CCCC(C)CCCC(C)C)O2 (racemic) [DL-alpha-Tocopherol]
[1]; [3]
  Cholesterol-free media + simvastatin (0.04 μM): 1.155
[1]; [4]
  Complete Media: 1.072
[1]; [9]
  Difference: −0.08
[2]; [10]
  Cholesterol-free: 0.7949
[2]; [11]
  Complete: 1.459
[2]; [12]
  Difference: 0.66

## C=CC(=O)N1CCC[C@@H](n2nc(-c3ccc(Oc4ccccc4)cc3)c3c(N)ncnc32)C1 (racemic) [Ibrutinib (Racemate)]
[1]; [13]
  Cholesterol-free media + simvastatin (0.04 μM): 0.346
[1]; [14]
  Complete Media: 0.2858
[1]; [15]
  Difference: −0.06
[2]; [16]
  Cholesterol-free: 1.242
[2]; NCI-H292 cells, complete media
  Complete: 0.9233
[2]; [17]
  Difference: −0.32

## CN1[C@H]2C[C@H](OC(=O)[C@H](CO)c3ccccc3)C[C@@H]1[C@@H](O)C2 (racemic) [Racanisodamine]
[1]; [13]
  Cholesterol-free media + simvastatin (0.04 μM): 0.9483
[1]; [14]
  Complete Media: 0.9207
[1]; complete media minus cholesterol-free media + simvastatin (0.04 μM), […]
  Difference: −0.03
[2]; [18]
  Difference: −0.15
[2]; [19]
  Cholesterol-free: 1.184
[2]; [4]
  Complete: 1.034

## COC1=CC(=O)OC(/C=C/c2ccccc2)C1 (single isomer, unassigned; (+)) [(+)-Kavain]
[1]; NCI-H292 cells, cholesterol-free media with simvastatin 0.04 μM, […]
  Cholesterol-free media + simvastatin (0.04 μM): 1.009
[1]; NCI-H292 cells, complete media, […]
  Complete Media: 1.093
[1]; complete media minus cholesterol-free media + simvastatin, […]
  Difference: 0.08
[2]; [18]
  Difference: −0.08
[2]; [19]
  Cholesterol-free: 1.138
[2]; [4]
  Complete: 1.054

## CC(C)(C)NCC(O)COc1ccccc1C1CCCC1 (single isomer, unassigned; (+)) [(+)-Penbutolol]
[1]; [20]
  Cholesterol-free media + simvastatin (0.04 μM): 1.153
[1]; [21]
  Complete Media: 0.9518
[1]; [9]
  Difference: −0.20
[2]; [16]
  Cholesterol-free: 1.349
[2]; NCI-H292 cells, complete media
  Complete: 1.014
[2]; [17]
  Difference: −0.33

## CC1CCC(C(C)C)C(O)C1 (single isomer, unassigned; (-)) [(−)-Menthol]
[1]; [22]
  Cholesterol-free media + simvastatin (0.04 μM): 1.223
[1]; [23]
  Complete Media: 0.8866
[1]; [9]
  Difference: −0.34
[2]; [16]
  Cholesterol-free: 1.434
[2]; NCI-H292 cells, complete media
  Complete: 1.115
[2]; [17]
  Difference: −0.32

## CC(=C(CCO)SSCC1CCCO1)N(C=O)Cc1cnc(C)nc1N (stereo in doubt) [Fursultiamine]
[1]
  Cholesterol-free media + simvastatin (0.04 μM): 1.842
  Complete Media: 1.268
  Difference: −0.57
[2]
  Cholesterol-free: 1.191
  Complete: 1.162
  Difference: −0.03

## CC(=C(CCOC(=O)C(C)C)SSC(CCOC(=O)C(C)C)=C(C)N(C=O)Cc1cnc(C)nc1N)N(C=O)Cc1cnc(C)nc1N (stereo in doubt) [Sulbutiamine]
[1]; NCI-H292 cells, cholesterol-free media with simvastatin 0.04 μM, cell growth value in FDA drug screen
  Cholesterol-free media + simvastatin (0.04 μM): 0.8359
[1]; NCI-H292 cells, complete media, cell growth value in FDA drug screen
  Complete Media: 0.9183
[1]; [5]
  Difference: 0.08
[2]; [10]
  Cholesterol-free: 1.257
[2]; [11]
  Complete: 1.438
[2]; [12]
  Difference: 0.18

## O=C(O)c1ccccc1OP(=O)(O)O [2-(Phosphonooxy)benzoic acid]
[1]; [20]
  Cholesterol-free media + simvastatin (0.04 μM): 1.147
[1]; [21]
  Complete Media: 0.9779
[1]; [9]
  Difference: −0.17
[2]; [6]
  Difference: −0.51
[2]; [7]
  Cholesterol-free: 1.515
[2]; [8]
  Complete: 1.005

## CCOc1ccccc1C(N)=O [2-Ethoxybenzamide]
[1]; [3]
  Cholesterol-free media + simvastatin (0.04 μM): 1.119
[1]; [4]
  Complete Media: 0.9754
[1]; [9]
  Difference: −0.14
[2]; Complete minus Cholesterol-free, >0 enhanced anti-cancer activity, about 0 neutral, <0 antagonist
  Difference: −0.07
[2]; [10]
  Cholesterol-free: 1.024
[2]; [11]
  Complete: 0.9559

## NCc1ccc(C(=O)O)cc1 [4-(Aminomethyl)benzoic acid]
[1]; [13]
  Cholesterol-free media + simvastatin (0.04 μM): 1.68
[1]; [14]
  Complete Media: 1.637
[1]; [15]
  Difference: −0.04
[2]; [6]
  Difference: −0.68
[2]; [7]
  Cholesterol-free: 1.961
[2]; [8]
  Complete: 1.286

## Nc1ccc(C(=O)O)c(O)c1 [4-Aminosalicylic acid]
[1]; [3]
  Cholesterol-free media + simvastatin (0.04 μM): 1.199
[1]; [4]
  Complete Media: 1.112
[1]; [24]
  Difference: −0.09
[2]; [18]
  Difference: −0.16
[2]; [19]
  Cholesterol-free: 1.094
[2]; [4]
  Complete: 0.9375

## Cc1ncc(COP(=O)(O)O)c(C)c1O [4-Deoxypyridoxine 5′-phosphate]
[1]; [20]
  Cholesterol-free media + simvastatin (0.04 μM): 1.284
[1]; [21]
  Complete Media: 1.065
[1]; [24]
  Difference: −0.22
[2]; [10]
  Cholesterol-free: 0.7389
[2]; complete vs cholesterol-free media, […]
  Difference: 0.41

## Cc1cc(=O)oc2cc(O)ccc12 [4-Methylumbelliferone]
[1]; [3]
  Cholesterol-free media + simvastatin (0.04 μM): 1.129
[1]; [4]
  Complete Media: 1.057
[1]; [9]
  Difference: −0.07
[2]; [10]
  Cholesterol-free: 0.6739
[2]; [11]
  Complete: 1.119
[2]; [12]
  Difference: 0.45

## O=C(O)CCCc1ccccc1 [4-Phenylbutyric acid]
[1]; [20]
  Cholesterol-free media + simvastatin (0.04 μM): 1.251
[1]; [21]
  Complete Media: 1.056
[1]; [9]
  Difference: −0.19
[2]; [25]
  Difference: −0.13
[2]; [19]
  Cholesterol-free: 1.208
[2]; [4]
  Complete: 1.079

## CC(=O)c1ccc(O)c(C(=O)O)c1 [5-Acetylsalicylic acid]
[1]; [22]
  Cholesterol-free media + simvastatin (0.04 μM): 1.188
[1]; [23]
  Complete Media: 0.8198
[1]; [9]
  Difference: −0.37
[2]; [10]
  Cholesterol-free: 0.912
[2]; [11]
  Complete: 1.045
[2]; [12]
  Difference: 0.13

## Cl.NCC(=O)CCC(=O)O [5-Aminolevulinic acid (hydrochloride)]
[1]; [3]
  Cholesterol-free media + simvastatin (0.04 μM): 1.091
[1]; [4]
  Complete Media: 1.01
[1]; [24]
  Difference: −0.08
[2]; [18]
  Difference: −0.75
[2]; [7]
  Cholesterol-free: 1.604
[2]; [8]
  Complete: 0.8558

## Nc1ccc(O)c(C(=O)O)c1 [5-Aminosalicylic Acid]
[1]; [20]
  Cholesterol-free media + simvastatin (0.04 μM): 1.224
[1]; [21]
  Complete Media: 1.016
[1]; [9]
  Difference: −0.21
[2]; [16]
  Cholesterol-free: 1.21
[2]; NCI-H292 cells, complete media
  Complete: 0.8775
[2]; [17]
  Difference: −0.33

## Nc1ncn([C@@H]2O[C@H](CO)[C@@H](O)[C@H]2O)c(=O)n1 [5-Azacytidine]
[1]; [13]
  Cholesterol-free media + simvastatin (0.04 μM): 0.9383
[1]; [14]
  Complete Media: 0.8858
[1]; [15]
  Difference: −0.05
[2]; [16]
  Cholesterol-free: 1.157
[2]; NCI-H292 cells, complete media
  Complete: 0.8064
[2]; [17]
  Difference: −0.35

## O=c1[nH]cc(F)c(=O)[nH]1 [5-Fluorouracil]
[1]; [22]
  Cholesterol-free media + simvastatin (0.04 μM): 0.7934
[1]; [23]
  Complete Media: 0.5204
[1]; [9]
  Difference: −0.27
[2]; [25]
  Difference: −0.13
[2]; [19]
  Cholesterol-free: 0.4728
[2]; [4]
  Complete: 0.3401

## N[C@@H](Cc1c[nH]c2ccc(O)cc12)C(=O)O [5-Hydroxytryptophan]
[1]; [20]
  Cholesterol-free media + simvastatin (0.04 μM): 1.063
[1]; [21]
  Complete Media: 0.8252
[1]; [9]
  Difference: −0.24
[2]; [16]
  Cholesterol-free: 1.189
[2]; NCI-H292 cells, complete media
  Complete: 0.856
[2]; [17]
  Difference: −0.33

## CC(=O)NCCCCCC(=O)O [6-Acetamidohexanoic acid]
[1]; [20]
  Cholesterol-free media + simvastatin (0.04 μM): 1.04
[1]; [21]
  Complete Media: 0.7847
[1]; [9]
  Difference: −0.26
[2]; [16]
  Cholesterol-free: 1.348
[2]; NCI-H292 cells, complete media
  Complete: 1.01
[2]; [17]
  Difference: −0.34

## NCCCCCC(=O)O [6-Aminocaproic acid]
[1]
  Cholesterol-free media + simvastatin (0.04 μM): 1.226
  Complete Media: 1.745
  Difference: 0.52
[2]
  Cholesterol-free: 1.11
  Complete: 1.715
  Difference: 0.60

## O.Sc1ncnc2nc[nH]c12 [6-Mercaptopurine hydrate]
[1]; [20]
  Cholesterol-free media + simvastatin (0.04 μM): 0.9123
[1]; [21]
  Complete Media: 0.7458
[1]; [24]
  Difference: −0.17
[2]; [18]
  Difference: −0.11
[2]; [19]
  Cholesterol-free: 0.3886
[2]; [4]
  Complete: 0.2796

Source: patent publication US20250144067A1, “PERSONALIZED STARVATION THERAPY FOR CANCER” (Faeth Therapeutics, Inc., priority 2021, published 2025)
